Measurements published in EP4600243A2, “NOVEL BICYCLIC HETEROCYCLYL COMPOUNDS AND USE THEREOF” (Jeil Pharmaceutical Co., Ltd., priority 2022, dated 2024).

Biological target: T1, protein-protein interaction between SOS1 and KRAS G12C (Homo sapiens, UniProt Q07889)
T1 construct: purchased Cisbio 64KRASG12PEG
T1 sequence (Q07889 1-1333): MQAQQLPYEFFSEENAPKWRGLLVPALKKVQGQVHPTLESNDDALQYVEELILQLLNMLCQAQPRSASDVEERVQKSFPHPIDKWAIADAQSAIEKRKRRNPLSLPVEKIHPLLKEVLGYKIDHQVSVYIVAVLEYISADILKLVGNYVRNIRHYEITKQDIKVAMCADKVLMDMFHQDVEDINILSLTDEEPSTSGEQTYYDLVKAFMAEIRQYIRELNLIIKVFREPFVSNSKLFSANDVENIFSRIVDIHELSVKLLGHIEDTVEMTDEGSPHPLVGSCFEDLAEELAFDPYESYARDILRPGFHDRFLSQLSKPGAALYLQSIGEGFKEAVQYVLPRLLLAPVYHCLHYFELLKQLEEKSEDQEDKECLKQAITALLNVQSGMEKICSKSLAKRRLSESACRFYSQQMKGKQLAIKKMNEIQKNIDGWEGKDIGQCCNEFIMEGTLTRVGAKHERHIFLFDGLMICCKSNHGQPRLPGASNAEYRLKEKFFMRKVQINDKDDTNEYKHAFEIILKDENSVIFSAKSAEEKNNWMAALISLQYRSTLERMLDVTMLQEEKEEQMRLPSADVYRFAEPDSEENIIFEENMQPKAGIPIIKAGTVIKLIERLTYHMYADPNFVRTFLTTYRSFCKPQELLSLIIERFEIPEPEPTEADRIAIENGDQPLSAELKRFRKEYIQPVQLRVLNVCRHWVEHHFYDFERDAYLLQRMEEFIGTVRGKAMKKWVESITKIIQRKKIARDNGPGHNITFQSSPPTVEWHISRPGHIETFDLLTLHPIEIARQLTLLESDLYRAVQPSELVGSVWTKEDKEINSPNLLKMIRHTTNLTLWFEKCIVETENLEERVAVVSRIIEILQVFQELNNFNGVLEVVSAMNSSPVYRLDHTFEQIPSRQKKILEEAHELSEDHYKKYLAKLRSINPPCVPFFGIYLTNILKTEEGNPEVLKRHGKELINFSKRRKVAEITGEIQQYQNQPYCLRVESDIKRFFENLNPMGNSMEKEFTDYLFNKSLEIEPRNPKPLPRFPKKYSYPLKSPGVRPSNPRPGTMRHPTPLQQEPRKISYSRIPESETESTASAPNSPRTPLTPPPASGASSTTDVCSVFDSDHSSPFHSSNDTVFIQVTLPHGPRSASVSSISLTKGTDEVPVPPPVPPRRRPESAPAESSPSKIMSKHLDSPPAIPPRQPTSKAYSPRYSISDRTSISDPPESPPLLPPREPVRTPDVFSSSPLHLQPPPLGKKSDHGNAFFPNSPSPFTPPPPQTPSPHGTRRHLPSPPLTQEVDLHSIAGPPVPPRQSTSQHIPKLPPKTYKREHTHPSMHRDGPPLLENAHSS
Experiment: KRAS::SOS1 HTRF binding analysis (KRAS G12C/SOS1 binding kit)
Conditions: compound at 0.1 uM
Description: 1-1. KRAS::SOS1 HTRF binding analysis
An SOS1 inhibitory ability of the example compounds of the present invention was confirmed by identifying the effect of inhibiting a protein-protein interaction between SOS1 and KRAS G12C of the compounds according to examples of the present invention.
Specifically, a KRAS G12C/SOS1 binding kit (64KRASG12PEG, Cisbio, France) was purchased and used. 2 µℓ of Tag1-KRAS G12C and 2 µℓ of GTP were premixed and dispensed 4 µl each into a 384 well plate (6007290, PerkinElmer, USA). 2 µℓ of the compound and 4 µℓ of Tag2-SOS1 were placed and then 10 µℓ of premixed Anti-Tag1 XL665 antibody and Anti-Tag2 Tb cryptate antibody was dispensed to each well. The plates were sealed and allowed to react at room temperature for one hour and 40 minutes, and then 665 nm wavelength and 620 nm wavelength were measured using a HTRF® compatible reader (Synergy H4, BioTeK, USA), and the ratio of receptor and donor emission signals for each well was calculated as 665 nm/620 nm×10^4.
(+++: more than 70 to 100% inhibition, ++: more than 40 to 70% inhibition, +: 0 to 40% inhibition) [Table 4]

| SMILES | inhibition at 0.1 µM |
| --- | --- |
| C[C@@H](Nc1cnnc2ccc(N3CC(O)C3)cc12)c1cccc(C(F)F)c1F [Example 30, (R)-1-(4-((1-(3-(difluoromethyl)-2-fluorophenyl)ethyl)amino)cinnolin-6-yl)azetidin-3-ol] | 0 to 40% |
| C[C@@H](Nc1cnnc2ccc(N3CCOCC3)cc12)c1cccc(C(F)F)c1F [Example 10, (R)-N-(1-(3-(difluoromethyl)-2-fluorophenyl)ethyl)-6-morpholinocinnolin-4-amine] | 0 to 40% |
| Cc1c(C#N)cccc1[C@@H](C)Nc1cnnc2ccc(C3=CCN(C)CC3)cc12 [Example 52, (R)-2-methyl-3-(1-(6-(1-methyl-1,2,3,6-tetrahydropyridin-4-yl)cinnolin-4-ylamino)ethyl)benzonitrile] | 0 to 40% |
| C[C@@H](Nc1cnnc2ccc(N[C@@H]3CCN(C)C3)cc12)c1cccc(C(F)F)c1F [Example 38, N4-((R)-1-(3-(difluoromethyl)-2-fluorophenyl)ethyl)-N6-((R)-1-methylpyrrolidin-3-yl)cinnolin-4,6-diamine] | 40 to 70% |
| C[C@@H](Nc1cnnc2ccc(N3CCC[C@@H](O)C3)cc12)c1cccc(C(F)F)c1F [Example 20, (R)-1-(4-(((R)-1-(3-(difluoromethyl)-2-fluorophenyl)ethyl)amino)cinnolin-6-yl)piperidin-3-ol] | 0 to 40% |
| CO[C@@H]1CCCN(c2ccc3nncc(N[C@H](C)c4cccc(C(F)F)c4F)c3c2)C1 [Example 23, N-((R)-1-(3-(difluoromethyl)-2-fluorophenyl)ethyl)-6-((R)-3-methoxypiperidin-1-yl)cinnolin-4-amine] | 0 to 40% |
| C[C@@H](Nc1cnnc2ccc(N3C4CCC3COC4)cc12)c1cccc(C(F)F)c1F [Example 15, 6-(3-oxa-8-azabicyclo[3.2.1]octan-8-yl)-N-((R)-1-(3-(difluoromethyl)-2-fluorophenyl)ethyl)cinnolin-4-amine] | 0 to 40% |
| C[C@@H](Nc1cnnc2ccc(N3CC4CCC(C3)O4)cc12)c1cccc(C(F)F)c1F [Example 16, 6-(8-oxa-3-azabicyclo[3.2.1]octan-3-yl)-N-((R)-1-(3-(difluoromethyl)-2-fluorophenyl)ethyl)cinnolin-4-amine] | 0 to 40% |
| C[C@@H](Nc1cnnc2ccc(N3CC[C@@H](O)C3)cc12)c1cccc(C(F)F)c1F [Example 27, (R)-1-(4-(((R)-1-(3-(difluoromethyl)-2-fluorophenyl)ethyl)amino)cinnolin-6-yl)pyrrolidin-3-ol] | 40 to 70% |
| C[C@@H](Nc1cnnc2ccc(N3CC(C)(O)C3)cc12)c1cccc(C(F)F)c1 [Example 45, (R)-1-(4-((1-(3-(difluoromethyl)phenyl)ethyl)amino)cinnolin-6-yl)-3-methylazetidin-3-ol] | 0 to 40% |
| C[C@@H](Nc1cnnc2ccc(N[C@H]3CCOC3)cc12)c1cccc(C(F)F)c1F [Example 36, N4-((R)-1-(3-(difluoromethyl)-2-fluorophenyl)ethyl)-N6-((S)-tetrahydrofuran-3-yl)cinnolin-4,6-diamine] | 0 to 40% |
| C[C@@H](Nc1cnnc2ccc(N3CCN(C(=O)C4CC4)CC3)cc12)c1cccc(C(F)F)c1F [Example 62, (R)-cyclopropyl(4-(4-(1-(3-(difluoromethyl)-2-fluorophenyl)ethylamino)cinnolin-6-yl)piperazin-1-yl)methanone] | 40 to 70% |
| C[C@@H](Nc1cnnc2ccc(N3CCN(C(=O)[C@H]4CCOC4)CC3)cc12)c1cccc(C(F)F)c1F [Example 65, (4-(4-((R)-1-(3-(difluoromethyl)-2-fluorophenyl)ethylamino)cinnolin-6-yl)piperazin-1-yl)((S)-tetrahydrofuran-3-yl)methanone] | 40 to 70% |
| C[C@@H](Nc1cnnc2ccc(N3C[C@H]4COC[C@H]4C3)cc12)c1cccc(C(F)F)c1F [Example 29, N-((R)-1-(3-(difluoromethyl)-2-fluorophenyl)ethyl)-6-((3 aR,6aS)-tetrahydro-1H-furo[3,4-c]pyrrol-5(3H)-yl)cinnolin-4-amine] | 40 to 70% |
| COC1CCN(c2ccc3nncc(N[C@H](C)c4cccc(C(F)F)c4F)c3c2)CC1 [Example 22, (R)-N-(1-(3-(difluoromethyl)-2-fluorophenyl)ethyl)-6-(4-methoxypiperidin-1-yl)cinnolin-4-amine] | 0 to 40% |

The next lines start with the values.

| inhibition at 0.1 µM | SMILES |
| --- | --- |
| 0 to 40% | C[C@@H](Nc1cnnc2ccc(N3CCC(C)(O)CC3)cc12)c1cccc(C(F)F)c1 [Example 43, (R)-1-(4-((1-(3-(difluoromethyl)phenyl)ethyl)amino)cinnolin-6-yl)-4-methylpiperidin-4-ol] |
| 0 to 40% | C[C@@H](Nc1cnnc2ccc(N3CC[C@H](F)C3)cc12)c1cccc(C(F)F)c1F [Example 26, N-((R)-1-(3-(difluoromethyl)-2-fluorophenyl)ethyl)-6-((S)-3-fluoropyrrolidin-1-yl)cinnolin-4-amine] |
| 40 to 70% | C[C@@H](Nc1cnnc2ccc(N3CCC(NC(=O)C4COC4)CC3)cc12)c1cccc(C(F)F)c1F [Example 69, (R)-N-(1-(4-(1-(3-(difluoromethyl)-2-fluorophenyl)ethylamino)cinnolin-6-yl)piperidin-4-yl)oxetan-3-carboxamide] |
| 70 to 100% | C[C@@H](Nc1cnnc2ccc(N3CCN(C(=O)[C@@H]4CCOC4)CC3)cc12)c1cccc(C(F)F)c1F [Example 64, (4-(4-((R)-1-(3-(difluoromethyl)-2-fluorophenyl)ethylamino)cinnolin-6-yl)piperazin-1-yl)((R)-tetrahydrofuran-3-yl)methanone] |
| 70 to 100% | C[C@@H](Nc1cnnc2ccc(C3=CCN(C(=O)C4COC4)CC3)cc12)c1cccc(C(F)F)c1F [Example 60, (R)-(4-(4-(1-(3-(difluoromethyl)-2-fluorophenyl)ethylamino)cinnolin-6-yl)-5,6-dihydropyridin-1(2H)-yl)(oxetan-3-yl)methanone] |
| 0 to 40% | COC1CC2(C1)CN(c1ccc3nncc(N[C@H](C)c4cccc(C(F)F)c4F)c3c1)C2 [Example 34, (R)-N-(1-(3-(difluoromethyl)-2-fluorophenyl)ethyl)-6-(6-methoxy-2-azaspiro[3.3]heptan-2-yl)cinnolin-4-amine] |
| 0 to 40% | C[C@@H](Nc1cnnc2ccc(N3CC(C)(O)C3)cc12)c1cccc(C(F)F)c1F [Example 32, (R)-1-(4-((1-(3-(difluoromethyl)-2-fluorophenyl)ethyl)amino)cinnolin-6-yl)-3-methylazetidin-3-ol] |
| 0 to 40% | C[C@@H](Nc1cnnc2ccc(N3C[C@H]4C[C@@H]3CO4)cc12)c1cccc(C(F)F)c1 [Example 44, 6-((1R,4R)-2-oxa-5-azabicyclo[2.2.1]heptan-5-yl)-N-((R)-1-(3-(difluoromethyl)phenyl)ethyl)cinnolin-4-amine] |
| 0 to 40% | C[C@@H](Nc1cnnc2ccc(N3C[C@@H]4C[C@H]3CO4)cc12)c1cccc(C(F)F)c1F [Example 14, 6-((1S,4S)-2-oxa-5-azabicyclo[2.2.1]heptan-5-yl)-N-((R)-1-(3-(difluoromethyl)-2-fluorophenyl)ethyl)cinnolin-4-amine] |
| 0 to 40% | C[C@@H](Nc1cnnc2ccc(N3CCN(C4COC4)CC3)cc12)c1cccc(C(F)F)c1F [Example 8, (R)-N-(1-(3-(difluoromethyl)-2-fluorophenyl)ethyl)-6-(4-(oxetan-3-yl)piperazin-1-yl)cinnolin-4-amine] |
